Read-outs that look alike come from different tables or passages of the source.

Broadly, the mortality is the percentage killed. Low values mean a weak lethal effect, high ones a strong lethal effect.

The subject of data set [1] is veligers of quagga mussels. The data set is described as follows: Efficiency in killing mollusk veligers, beaker exposure. The conditions noted are these: approximately 20° C. Here is the method:
Further testing was conducted specifically on veligers of quagga mussels collected from Lake Mead and utilizing citric acid and L-lactic acid. Trials were conducted using 2 replicate beakers per test interval at approximately 20° C. Test beakers (100 mL) were seeded with at least 200 veligers per replicate in 10 mL of veliger concentrate and filtered lake water and then dosed with 90 mL of prepared acid concentrate for each of the tested concentrations of lactic acid or citric acid. Stock acid solutions were measured by weight and added to filtered lake water to make the total volume needed. Controls were run concurrently with treatments and used filtered lake water instead of acid to add into the beaker. Exposure times included 1, 5, and 15 minutes, and 1 and 24 hours to assess mortality for the different concentrations of acids.
The exposure times were 5 minutes, 15 minutes, one hour, and 24 hours.
In the second test, the final concentrations of citric acid and L-lactic acid were 1% and 2% by weight for each acid. The exposure times were one minute and 5 minutes.

In data set [2] the test system is adult dreissenid mussels. In words: Effective pH range determination, adult mussel mortality in pH-adjusted raw lake water. The method, then:
To find an optimal pH range at which lactic acid effectively killed adult dreissenid mussels, raw lake water was placed in 4 L water containers and aerated. The pH was adjusted in three containers to about 2.8, 4, and 6, respectively, using lactic acid. The initial water parameters (temperature 20° C., pH 7.6, dissolved oxygen (DO) 7.73, Alkalinity 90 mg/l) were monitored. A fourth container, with no pH adjustment was used for control. Twenty adult mussels of various sizes were placed in each of the three containers. […] Mortality was defined as a gaping shell with the adult mussel not responding to gentle prodding of the flesh.
The experiment was repeated with the pH adjusted to about 5.

The test system of data set [3] is adult dreissenid mussels. Conditions: pH about 4, warm water, after 72 hours.

`C[C@H](O)C(=O)O` [L-lactic acid]: the veliger mortality is 99% in data set [1] (0.6% by weight, one hour exposure) and 86% in data set [1] (2% by weight, five minute exposure).
Consider `CC(O)C(=O)O` (stereo not drawn) [lactic acid], for which the mortality with adult dreissenid mussels [2] (in vivo, pH 4) was 100%; with adult dreissenid mussels [2] (pH of 6, after 48 hours), “no mortality”; in the data set on adult dreissenid mussels [3], “complete mortality”. Also, in the data set with adult dreissenid mussels [2] (pH 2.8, after 48 hours), the shell condition entry is given as “shells were disintegrating”.

The values above are taken from patent publication US20190202719A1, “METHOD FOR CONTROLLING MOLLUSK POPULATIONS” (priority 2016, published 2019).
